Legend:
[1] = for surface tension liquid-gas: Dataphysics DCAT21 digital tensiometer; for mass density: Liquid, Vibrating tube method
[2] = xn = mol fraction of the nth substance listed; settings: 298.15 K; for surface tension liquid-gas: Dataphysics DCAT21 digital tensiometer; for mass density: 101 kPa, Liquid, Vibrating tube method

CCCCCCCC[n+]1ccccc1.O=[N+]([O-])[O-] [1-octylpyridinium nitrate]
[1]
Settings | surface tension liquid-gas [mN/m]
293.15 K | 36.12
298.15 K | 35.76
303.15 K | 35.5
308.15 K | 35.18
313.15 K | 34.76
318.15 K | 34.48
323.15 K | 34.12
328.15 K | 33.78

[1], 101.33 kPa
Settings | mass density [kg/m3]
293.15 K | 1093.5
298.15 K | 1089.5
303.15 K | 1084.2
308.15 K | 1078.6
313.15 K | 1073.4
318.15 K | 1068.6
323.15 K | 1063.8
328.15 K | 1059.7

CCCCCCCC[n+]1ccccc1.O=[N+]([O-])[O-] [1-octylpyridinium nitrate] + CCCCO
[2]
Settings | mass density [kg/m3] | surface tension liquid-gas [mN/m]
x1 = 0.1245 | 875.3 | 25.17
x1 = 0.2008 | 910 | 25.84
x1 = 0.3038 | 948.6 | 26.35
x1 = 0.4019 | 978.1 | 26.92
x1 = 0.5012 | 1002 | 27.53
x1 = 0.6025 | 1023 | –
x1 = 0.701 | 1041.7 | –
x1 = 0.8005 | 1059 | –
x1 = 0.899 | 1074.9 | –
x1 = 1 | 1089.5 | –

CCCCCCCC[n+]1ccccc1.O=[N+]([O-])[O-] [1-octylpyridinium nitrate] + CCO
[2]
Settings | mass density [kg/m3] | surface tension liquid-gas [mN/m]
x1 = 0.2 | 939.3 | 26.44
x1 = 0.3035 | 981.4 | 27.83
x1 = 0.4063 | 1011.5 | 28.74
x1 = 0.5087 | 1034.2 | 29.75
x1 = 0.5903 | 1048.5 | –
x1 = 0.7456 | 1069.4 | –
x1 = 0.791 | 1073.9 | –
x1 = 0.876 | 1081.5 | –
x1 = 1 | 1089.5 | –

CCCCCCCC[n+]1ccccc1.O=[N+]([O-])[O-] [1-octylpyridinium nitrate] + CO
[2]
Settings | mass density [kg/m3] | surface tension liquid-gas [mN/m]
x1 = 0.1026 | 910.2 | 27.4
x1 = 0.2063 | 974.3 | 30.11
x1 = 0.3072 | 1011.3 | 30.78
x1 = 0.4225 | 1038.4 | 32
x1 = 0.5067 | 1052.6 | –
x1 = 0.6067 | 1065 | –
x1 = 0.8534 | 1084.4 | –
x1 = 0.936 | 1087.5 | –
x1 = 1 | 1089.5 | –

CCCCO [butan-1-ol]
Settings | surface tension liquid-gas [mN/m]
[1], 298.15 K | 23.67

Settings | mass density [kg/m3]
[1], 298.15 K, 101 kPa | 805.6

CCCCO [butan-1-ol] + CCCCCCCC[n+]1ccccc1.O=[N+]([O-])[O-]
[2], x2 = 0
Settings | mass density [kg/m3] | surface tension liquid-gas [mN/m]
– | 805.6 | 23.67

CCO [ethanol]
Settings | surface tension liquid-gas [mN/m]
[1], 298.15 K | 21.55

Settings | mass density [kg/m3]
[1], 298.15 K, 101 kPa | 784.8

CCO [ethanol] + CCCCCCCC[n+]1ccccc1.O=[N+]([O-])[O-]
[2], x2 = 0
Settings | mass density [kg/m3] | surface tension liquid-gas [mN/m]
– | 784.8 | 21.55

CO [methanol]
Settings | surface tension liquid-gas [mN/m]
[1], 298.15 K | 22.09

Settings | mass density [kg/m3]
[1], 298.15 K, 101 kPa | 785.3

CO [methanol] + CCCCCCCC[n+]1ccccc1.O=[N+]([O-])[O-]
[2], x2 = 0
Settings | mass density [kg/m3] | surface tension liquid-gas [mN/m]
– | 785.3 | 22.09
